# BindingDB's records for doi:10.1021/jm970161m (Warner-Lambert, 1997)
# Square brackets hold non-standard residues; d marks the D form. Peptide text beside a SMILES is read from it. NMeDip = CN[C@H](C(=O)O)C(c1ccccc1)c1ccccc1; Dip = N[C@H](C(=O)O)C(c1ccccc1)c1ccccc1; NMeI = CC[C@H](C)[C@H](NC)C(=O)O
# Molecular target: Endothelin-1 receptor (Oryctolagus cuniculus)
# Assay: Inhibition of binding to Endothelin A receptor of rabbit renal vascular smooth muscle cells
row,Structure (SMILES),IC50 [nM]
1,CC[C@H](C)[C@H](NC(=O)[C@H](CC(=O)O)NC(=O)[C@H](CC(C)C)NC(=O)[C@H](C(c1ccccc1)c1ccccc1)N(C)C(C)=O)C(=O)N[C@H](C(=O)N[C@@H](Cc1c[nH]c2ccccc12)C(=O)O)[C@@H](C)CC (Ac-[NMeDip]LDIIW-OH),4500
2,CC[C@H](C)[C@H](NC(=O)[C@H]([C@@H](C)CC)N(C)C(=O)[C@H](CC(=O)O)NC(=O)[C@H](CC(C)C)NC(=O)[C@@H](NC(C)=O)C(c1ccccc1)c1ccccc1)C(=O)N[C@@H](Cc1c[nH]c2ccccc12)C(=O)O (Ac-[Dip]LD[NMeI]IW-OH),700
